# What was measured:
# [1] = system: Toxoplasma gondii tachyzoites of RH strain; test: Plaque assay (7 days) in NHDF monolayers infected with T. gondii; assay type: cell-based; conditions: 7 days of treatment, two independent experiments
# Protocol: After NHDF reached confluency, each well was replaced with fresh medium containing one compound at a concentration of 1 µM, and then infected with 1000 newly egressed tachyzoites from RH strain [29]. Screening at 1 μM is recommended by MMV. As a control, infected cells were incubated with complete medium and 0.01% DMSO [29]. The plates were then kept in an incubator at 37 °C in a humid atmosphere with 5% CO2 for seven days. After this time, cultures were fixed with 70% ethanol and stained with crystal violet to observe the plates.
# For that, 12-well plates containing a monolayer of NHDF were infected with 600 tachyzoites of the RH strain of T. gondii and treated with different concentrations for seven days. IC50s of compounds were calculated using GraphPad Prism 8.0 software.
# Data were analyzed using GraphPad Prim 8.0 software. IC50 and CC50 calculations were performed by fitting the values of proliferation/viability in percentage to a non-linear curve followed by dose–response inhibition analysis through log(inhibitor) vs. normalized response.
# NHDF cells = test: Cytotoxicity assay (MTS, 7 days); assay type: cell-based, Human; conditions: MTS, ND = 100% viability up to 10 µM, read-out: Cytotoxicity against NHDF (7 Days) CC50
# Protocol: For that, 96-well tissue plates containing NHDF cells were treated with different concentrations of compounds up to 10 µM for seven days. Control cells were incubated with 0.5% DMSO. At the end of the treatment, cell viability was then analyzed through the colorimetric method of MTS (Promega, Madison, WI, USA). […] Data were analyzed using GraphPad Prim 8.0 software. IC50 and CC50 calculations were performed by fitting the values of proliferation/viability in percentage to a non-linear curve followed by dose–response inhibition analysis through log(inhibitor) vs. normalized response.
# [2] = system: Toxoplasma gondii tachyzoites of RH strain; test: Forty-eight-hour antiproliferative assay; assay type: cell-based; conditions: 1 µM, 48 h
# Protocol: NDHF cell monolayers were plated in a 24-well tissue plate containing coverslips, and after confluency was reached, cells were infected with a ratio of 5:1 parasite/host cells with freshly egressed RH strain tachyzoites for two hours. Then, cells were washed twice with phosphate-buffered saline, pH 7.4 (PBS), to remove non-invaded parasites and incubated with a complete medium for two hours more. After this time, infected cells were treated for 48 h with different concentrations of selected compounds, based on the IC50 obtained through plaque assay. At the end of the experiment, the cells were washed with PBS, stained with Bouin for 10 min, washed with 70% alcohol, and stained with solutions 2 and 3 of the Fast Panoptic kit for 60 and 10 s, respectively. Two hundred infected cells were quantified per slide using the 100× objective of a Leica DM500 optical microscope, stratifying the number of infected and non-infected cells and the amount of tachyzoite in each infected cell. The proliferation index is the ratio of the product of the total amount of tachyzoites and the percentage of infected cells by the total number of cells.
# T. gondii tachyzoites = test: Ultrastructural analysis through transmission electron microscopy; assay type: cell-based, Toxoplasma gondii; conditions: 1 µM, 48 h
# Protocol: T-25 cm^2 flasks for cell culture with confluent monolayers of NHDF were infected with freshly egressed tachyzoite in a ratio of 10:1 parasite per cell for 2 h of interaction. The flasks were washed and fresh RPMI was added for another two hours. After this, the compounds were added and infected cells were treated for 48 h. The sample fixation and processing for microscopy were performed as previously described.
# Madurella mycetomatis = system: Madurella mycetomatis; set-up: method as in PMID 35120131; conditions: read-out: IC50 against Madurella mycetomatis; cited from earlier work
smiles,measurement,setting,value
Clc1cc(Cl)c2c(c1)CCc1ccccc1C2n1ccnc1 (centres unmarked) [Eberconazole],IC50,[1],724 ± 12.6 nM
same,CC50,NHDF cells,> 10000 nM
same,Inhibition of parasite proliferation,[2],more than 60%
same,Ultrastructural alterations on tachyzoites (TEM),T. gondii tachyzoites,induced mitochondrial swelling (white arrowhead) and extensive vacuolization
same,IC50,Madurella mycetomatis,720 nM

# Reference: article PMC10747034 (Tropical Medicine and Infectious Disease, 2023)
